# Reference: patent publication US11672790B2, “Methods of managing conditioned fear with neurokinin receptor antagonists” (Emory University, priority 2014, dated 2023)
# Entries after “also recorded” stand apart in the source; their conditions may differ.
# How the values were obtained:
# [1] = test system: Tac2-expressing neurons in the CeA; experiment: Gi-DREADD silencing of Tac2-expressing CeA neurons with CNO, fear conditioning and elevated plus maze; format: in vivo, mice
# Protocol: Tac2-Cre^− or Tac2-Cre^+ mice were infected with the hM4Di-mCherry AAV in the CeA. The Gi receptor was inserted only on the Tac2-Cre cells of Tac2-Cre+mice, CeM=centro-medial amygdala, CeL=centro-lateral amygdala. CNO was given systemically 30 minutes prior to fear conditioning to Tac2-Cre-/hM4Di-mCherry and Tac2 Cre+/hM4DimCherry. […] Tac2-Cre-/hM4DimCherry vs Tac2-Cre+/hM4Di-mCherry. Tac2-Cre-/hM4Di-mCherry and Tac2-Cre+/hM4Di-mCherry mice were retrained to a different acoustic tone (CS) without receiving CNO.
# To further understand the role of the Tac2 gene, the activity of neurons expressing this gene in the CeA were temporarily silenced during fear learning using designer receptors exclusively activated by designer drugs (DREADD) technology. The B6.129-Tac2tm1.1(cre) Qima/J (Tac2-cre) (Mar et al., Mol. Brain, 2012, 5, 3) mice were infected with a DREADD Gi-coupled receptor via the pAAV-hSyn-double floxed hM4D-mCherry virus (hM4Di-mCherry AAV). […] 14 days later, clozapine-N-oxide (CNO), which binds to the inserted receptor but otherwise is pharmacologically inert, was given systemically 30 minutes before FC in both groups, Tac2-Cre-/hM4Di-mCherry and Tac2-Cre+/hM4Di-mCherry. CNO had no effect on fear acquisition as shown by equivalent amount of freezing in both groups (FIG. 5A). […] Mice were then retrained with a different CS and a different context in the same FC apparatus, as in previous experiments but without dosing CNO.
# Nk3R = molecular target: T1, Nk3R (Mus musculus, UniProt P47937); experiment: Amygdala cell culture incubated with osanetant, Nk3R mRNA levels; format: cell-based; settings: incubation with 20 μg and 40 μg of osanetant, vs Veh
# T1 construct: endogenous in cells; host or cells: mouse amygdala cell culture (primary)
# T1 sequence (P47937 1-452): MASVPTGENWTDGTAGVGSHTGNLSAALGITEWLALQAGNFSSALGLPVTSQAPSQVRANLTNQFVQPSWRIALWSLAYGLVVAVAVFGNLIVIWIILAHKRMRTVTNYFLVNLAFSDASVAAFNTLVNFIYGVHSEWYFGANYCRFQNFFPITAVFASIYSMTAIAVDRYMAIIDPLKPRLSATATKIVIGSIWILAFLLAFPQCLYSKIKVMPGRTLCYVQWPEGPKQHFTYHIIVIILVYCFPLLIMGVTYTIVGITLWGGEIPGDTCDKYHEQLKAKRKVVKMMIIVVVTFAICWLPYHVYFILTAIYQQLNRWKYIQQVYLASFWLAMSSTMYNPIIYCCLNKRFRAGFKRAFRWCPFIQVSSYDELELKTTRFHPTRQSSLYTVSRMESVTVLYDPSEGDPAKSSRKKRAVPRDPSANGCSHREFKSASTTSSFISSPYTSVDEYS
# Text: Moreover, NkB peptide is also highly expressed in the CeA. […] The Nk3R antagonist osanetant has already been used in humans in clinical trials for schizophrenia.
# mice [2] = experiment: Open field, systemic osanetant 30 minutes before; format: in vivo; settings: 30 minutes before open field
# Protocol: (§1) Different cohorts of mice received systemic osanetant 30 minutes before open field, elevated plus maze or fear conditioning in the startle chamber.
# (§2) The above studies indicate that osanetant would target the Nk3R in the amygdale in vivo. Osanetant given systemically, 30 minutes before open field, elevated plus maze and the conditioning chamber elicits no changes in anxiety-like behavior, locomotor activity or electric shock reactivity.
# mice [3] = experiment: Elevated plus maze, systemic osanetant 30 minutes before; format: in vivo; settings: 30 minutes before elevated plus maze
# Protocol: as §1
# FIG. 6C time in open arms,
# FIG. 6D entries in open arms, and
# FIG. 6E time in closed arms in the elevated plus maze.
# as §2
# mice [4] = experiment: Shock reactivity in the startle chamber; format: in vivo; settings: systemic, 30 minutes before testing in the startle chamber
# Protocol: as §1, §2
# mice [5] = experiment: Auditory cued fear conditioning and fear expression test, systemic osanetant; format: in vivo; settings: dosed from 30 min before FC up to 1 hour after training; for fear memory consolidation, freezing in the fear expression test: vs vehicle
# [6] = test system: Pac1 receptor (Adcyap1r1); experiment: Adcyap1r1 (PAC1 receptor) mRNA levels in the amygdala after fear conditioning; format: in vivo, mice; settings: intraperitoneally 30 minutes before fear conditioning, vs Veh-FC
# Text: The PACAP-PAC1R pathway is associated with PTSD, fear conditioning and stress.
# (§3) Recently, the PACAP-PAC1R pathway has been associated with PTSD in humans as well as in animal models. (See Stevens et al., 2014).
# CeA-NK3R = molecular target: T2, CeA-NK3R (Mus musculus, UniProt P47937); experiment: Osanetant bilaterally injected into the central amygdala, cued-fear expression test; format: in vivo, mice; settings: bilateral infusion in the CeA immediately after fear conditioning; vs vehicle
# T2 construct: from tissue; host or cells: central amygdala of living mice (in vivo infusion)
# T2 sequence (P47937 1-452): T1 sequence (P47937 1-452)
# Text: as §3
# IMO treated mice = experiment: Fear conditioning after immobilization to a wooden board (IMO), PTSD-like model; format: in vivo; settings: systemic immediately after FC
# Protocol: Veh=vehicle; Osa=osanetant.
# Mice exposed for 2 hours to a severe one-time stressor, immobilization to a wooden board (IMO), present long-term PTSD-like symptoms: impaired fear extinction and spatial memory, and enhanced anxiety-like behaviors. Additionally, IMO in rats elicits alterations of the hypothalamic-pituitary-adrenal (HPA) axis which may be similar to the process initiating PTSD in humans.
# mice [7] = experiment: Fear conditioning in mice with LV-Tac2 or LV-GFP infused in the central amygdala, systemic osanetant; format: in vivo; settings: systemic immediately after FC, tested 24 hours later
# Text: The lentivirus GFP-FUGW induces GFP expression but not Neurokinin B (NkB) in Hek293 cells. […] Tac2-FUGW or GFP-FUGW were bilaterally infused in the central amygdala and mice were left undisturbed for 14 days.
# The lentiviruses GFP-FUGW and Tac2-FUGW causes no changes in fear conditioning. Osanetant or vehicle were given systemically immediately after fear acquisition.
# A viral vector was developed to overexpress the Tac2 gene in an inducible fashion within the brain, the lentivirus-Tac2 (LV-Tac2). […] The behavioral effects of Tac2 overexpression was examined in mice. […] Mice infected with the LVTac2 or LV-GFP received systemic osanetant or vehicle immediately after FC, and then fear expression was tested 24 hours later. Specific CeA-Tac2 overexpression elicited a significant enhancement of fear memory consolidation. […] Additionally, the enhanced fear memory consolidation caused by CeA-Tac2 overexpression was reversed by osanetant (Post-hoc, **P≤0.01 vs LV-Tac2-Osa and LV-GFP-Osa FIG. 4D).
# guinea-pigs = settings: cited from earlier work
compound,measurement,setting,value
"C[N+]1([O-])CCN(C2=Nc3cc(Cl)ccc3Nc3ccccc32)CC1 [CNO, clozapine-N-oxide]","anxiety-like behavior, elevated plus maze","[1]; CNO 30 minutes before, both Tac2-Cre groups",equivalent levels; also recorded: no effect
same,"fear acquisition, freezing","[1]; CNO systemically 30 minutes before FC, Tac2-Cre-/hM4Di-mCherry and Tac2-Cre+/hM4Di-mCherry",no effect; also recorded: did not affect freezing during fear acquisition
same,"fear expression, freezing 24 hrs later in the absence of CNO","[1]; Tac2-Cre+/hM4Di-mCherry vs Tac2-Cre-/hM4Di-mCherry, CNO 30 minutes before FC",less freezing; also recorded: less conditioned fear
same,pain sensitivity,"[1]; given CNO, both Tac2-Cre groups",equivalent levels
"CC(=O)N(C)C1(c2ccccc2)CCN(CCC[C@]2(c3ccc(Cl)c(Cl)c3)CCCN(C(=O)c3ccccc3)C2)CC1 [osanetant, (R)-N-{{3-[1-Benzoyl-3-(3,4-dichlorophenyl)piperidin-3-yl]prop-1-yl}-4-phenylpiperidin-4-yl}-N-methylacetamine]",Nk3R mRNA levels,Nk3R,dose-dependent enhanced Nk3R mRNA levels; also recorded: enhances Nk3R mRNA levels; also recorded: increases Nk3R mRNA levels
same,"anxiety-like behavior, time in the center of the open field",mice [2],no effects
same,"locomotor activity, distance travelled in the open field",mice [2],no effects; also recorded: equivalent distance travelled
same,"anxiety-like behavior, time in the center of the open field",mice [2]; listed as Osanetant,no changes; also recorded: did not modified anxiety-like behavior
same,"locomotor activity, distance travelled in the open field",mice [2]; listed as Osanetant,no changes
same,"anxiety-like behavior in the elevated plus maze (time in open arms, entries in open arms, time in closed arms)",mice [3],no effects
same,"anxiety-like behavior in the elevated plus maze (time in open arms, entries in open arms, time in closed arms)",mice [3]; listed as Osanetant,no changes; also recorded: did not modified anxiety-like behavior
same,electric shock reactivity,mice [4],no effects; also recorded: Equivalent shock reactivity
same,electric shock reactivity,mice [4]; listed as Osanetant,no changes
same,fear acquisition,mice [5],does not affect fear acquisition
same,fear acquisition,mice [5]; listed as Osanetant,without affecting fear expression
same,"fear memory consolidation, freezing in the fear expression test",mice [5],impairs fear memory consolidation; also recorded: impairs fear learning
same,"fear memory consolidation, freezing in the fear expression test",mice [5]; listed as Osanetant,impairs cued-fear memory; also recorded: impairs fear memory consolidation
same,Adcyap1r1 (PAC1 receptor) mRNA levels in the amygdala,[6],impaired the enhancement of mRNA levels
same,Adcyap1r1 (PAC1 receptor) mRNA levels in the amygdala,[6]; listed as Osanetant,normalizes the levels; also recorded: prevented the up-regulation
same,"fear memory consolidation, freezing in the cued-fear expression test",CeA-NK3R,impaired fear memory consolidation
same,"fear memory consolidation, freezing in the fear expression test",IMO treated mice,impaired memory consolidation
same,"fear memory consolidation, freezing in the fear expression test",IMO treated mice; listed as Osanetant,impaired fear memory consolidation
same,enhanced fear memory consolidation caused by CeA-Tac2 overexpression,mice [7]; LV-Tac2 mice,reversed; also recorded: impairs this effect
same,fear memory consolidation,"mice [7]; control LV-GFP mice, vs LV-GFP-Veh",impaired fear memory consolidation
same,substance P-induced bronchial hyperreactivity,guinea-pigs,prevents
